Data published in ChEMBL document CHEMBL1157539, “Thousands of chemical starting points for antimalarial lead identification” (Nature, 2010).

Test system: Plasmodium falciparum
Assay: GSK_TCMDC: Inhibition of Plasmodium falciparum 3D7 in whole erythrocytes, using parasite LDH activity as an index of growth.
Type: functional, organism-based

Structure (SMILES)	XC50 (Plasmodium falciparum, 3D7)	XC50
CCCCc1cc(NCc2ccncc2)nc(Nc2cccc(OC)c2)n1	742 nM	–
C=CCc1cc(Cc2cnc(N)nc2N)cc(CCC)c1OC	1360 nM	–
CN1CCN(c2ccc(-c3cc(-c4ccncc4)c(-c4ccc(Cl)c(O)c4)o3)cc2)CC1	737 nM	–
COc1cccc(Nc2nc(C)cc(NC3CCCC3)n2)c1	1110 nM	–
O=C(Nc1cccc(CN2CCCN(Cc3ccccc3)CC2)c1)c1ccc(-c2ccccc2)cc1	1300 nM	–
COC(=O)/C=C/c1ccc(CC(C)NCC(O)c2cccc(C(F)(F)F)c2)cc1 (configuration not stated)	–	775 nM
Cc1cccc2nc(-c3ccc(-c4cccc(NC(=O)c5cnccc5C(F)(F)F)c4)cc3)[nH]c12	998 nM	–
CC(=O)c1ccc(NC(=O)Nc2ccc(N(C)c3ccnc(Nc4cccc(CS(C)(=O)=O)c4)n3)cc2)cc1	122 nM	–
CCOc1cc(C(=O)NC2CC(C)(C)N(C)C(C)(C)C2)ccc1-c1nc2cc(Cl)c(Cl)cc2[nH]1	861 nM	–
CN(C)Cc1ccc(-c2ccc(NC(=O)c3ccc4c(=O)n(Cc5ccccc5)cnc4c3)cc2)cc1	647 nM	–
CCNC(=O)N1CCN(c2nc(-c3ccccc3)nc(COC)c2Cc2ccc(C)cc2)CC1	989 nM	–
CC(CO)(CO)NCc1cc2ccc3ccsc3c2c2ccccc12	229 nM	–
CC(C)c1ccc(CN2CCC(CNC(=O)c3cc(-c4ccccc4F)cs3)C2)cc1 (configuration not stated)	993 nM	–
Cc1cccc2nc(-c3ccc(-c4cccc(NC(=O)c5ccncc5)c4)cc3)[nH]c12	839 nM	–
CCC[C@@H]([C@@H](CC(C)C)C(=O)N[C@@H](CCC/N=C(/N)NS(C)(=O)=O)C(=O)Nc1nccs1)N(O)C=O	941 nM	–
CCOCCCNc1ncc(-c2ccsc2)c(-c2nc(C)cs2)n1	272 nM	–
Cc1cccc2nc(-c3ccc(-c4cccc(NC(=O)CCc5c[nH]cn5)c4)s3)[nH]c12	838 nM	–
O=[N+]([O-])c1cc(/C=N/Nc2nc3ccccc3[nH]2)ccc1O	954 nM	–
COc1cccc(Nc2nc(C)cc(NC3CCN(Cc4ccccc4)CC3)n2)c1	693 nM	–
Oc1ccc(CCNc2nc(NCc3ccccc3-c3ccccc3)nc(N3CCCNCC3)n2)cc1	877 nM	–
COc1cc(C2NCC3(CCOCC3)c3cc4c(cc32)OCCO4)cc(OC)c1OC (configuration not stated)	169 nM	–
O=c1c2sc(-c3ccc(Cl)cc3)cc2ncn1Cc1ccc(OCCN2CCCC2)c2ccccc12	252 nM	–
CCC(C)OC(=O)C1=C(C)NC2=C(C(=O)CC(c3ccc(OC)c(OC)c3)C2)C1c1ccc(C)o1 (configuration not stated)	899 nM	–
CS(=O)(=O)Cc1ccc(Nc2nccc(-c3c(-c4cccc(C(=O)Nc5c(F)cccc5F)c4)nn4ccccc34)n2)cc1	532 nM	–
O=C(/C=C/c1ccc(Cl)c(Cl)c1)NCCCCCN1CCC(NS(=O)(=O)c2cc(Cl)cc(Cl)c2)CC1	1240 nM	–

Structure (SMILES)	XC50 (Plasmodium falciparum, 3D7)	XC50
CNC(=O)Cc1ccc(C(=O)Nc2cccc(-c3csc(-c4nc5ccccc5[nH]4)c3)c2)cc1	273 nM	–
COc1ccc2[nH]cc(C3=CCN(Cc4ccccc4)CC3)c2c1	569 nM	–
O=C(Nc1ccc(C(=O)OCC2CCCCC2)cc1)N[C@@H](Cc1ccc(O)cc1)C(=O)NC1CCN(Cc2ccc(O)cc2)C1 (some centres not stated)	874 nM	–
CCOC(=O)CC[C@@H](NC(=O)c1ccc(NCc2ccc3ccc4nc(C)[nH]c(=O)c4c3c2)cc1F)C(=O)N[C@@H](Cc1c[nH]c2ccccc12)C(=O)OCC	1030 nM	–
COc1ccc(-c2ccc(NC(=O)c3cccs3)cc2)cc1CN1CCCN(C)CC1	964 nM	–
CCN(CC)CCn1c(=N)n(CC(O)c2ccc(Cl)c(Cl)c2)c2ccccc21 (configuration not stated)	785 nM	–
CC(C)OC(=O)c1ccc(NC(=O)N[C@@H](Cc2ccc(O)cc2)C(=O)NC2CC3CCC(C2)N3Cc2ccccc2)cc1 (some centres not stated)	1080 nM	–
Cc1[nH]c(/C=C2\C(=O)Nc3ccc(S(=O)(=O)Cc4c(Cl)cccc4Cl)cc32)c(C)c1C(=O)N1CCC[C@@H]1CN1CCCC1 [PHA-665752]	720 nM	–
N=C(N)NCCCCN(Cc1ccccc1)c1ccccc1	745 nM	–
CN1CCN(CCCN(Cc2cccc(-c3ccc(CNCc4ccc5c(c4)OCO5)cc3)c2)C(=O)Nc2ccccc2)CC1	681 nM	–
COc1ccc(C(=O)Nc2cc(Br)c3c(c2)CNCC3)cc1C(F)(F)F	1070 nM	–
c1ccc(C(OCCC2CCN(Cc3cccc4cccnc34)CC2)c2ccccc2)cc1	874 nM	–
COc1ccc2c(c1C1CCN(CCCCNC(=O)c3ccc(NC(=O)c4ccc(Cl)cc4)cc3)CC1)CCCC2	341 nM	–
N#Cc1c(-c2ccccc2)cn2c1[nH]c(=O)c1ccccc12	109 nM	–
c1ccc2cc(CNCCCN3CCN(CCCNCc4ccc5ccccc5c4)CC3)ccc2c1	545 nM	–
O=[N+]([O-])c1ccc(C=NNc2nc(Nc3ccccc3)nc(Nc3ccccc3)n2)o1	837 nM	–
Cn1nc(C(F)(F)F)c(-c2ccc(Br)cc2)c1NC(=O)Cc1ccccc1F	157 nM	–
CN(CCCN(C)c1cc(NC(=O)c2ccc(F)cc2)ccn1)Cc1cccc(F)c1	1220 nM	–
Cc1cc(-c2nc3ccc(CN4CCN(C)CC4)cc3[nH]2)nn1Cc1cc(Cl)ccc1OCc1ccccc1	1120 nM	–
Cc1nnc2c(NC(=O)/C=C/c3ccc(OC(F)(F)F)cc3)cc3cc(Cl)ccc3n12	170 nM	–
NC(=O)Nc1ccc2cn[nH]c2c1	205 nM	–
C(=Cc1ccccc1)C=NN=c1cc[nH]c2ccccc12	725 nM	–
c1ccc(-c2cccc(-c3ccccn3)n2)nc1 [TERPYRIDINE]	901 nM	–
Cc1cccc(-n2c(=O)c3c4c(sc3n3c(SCCC(C)C)nnc23)CCCC4)c1	763 nM	–
O=C(Cn1c(CCc2cccc(F)c2F)cc(=O)c2ccccc21)N(CCN1CCCC1)Cc1ccc(-c2ccc(C(F)(F)F)cc2)cc1	859 nM	–

Structure (SMILES)	XC50 (Plasmodium falciparum, 3D7)	XC50
COc1c(C2CCN(CCCCNC(=O)c3ccc(-c4ccc(C(=O)C(F)(F)F)cc4)cc3)CC2)ccc2c1CCCC2	1100 nM	–
O=C(c1ccc(-c2ccccn2)s1)N1CCc2cc3nccc(N4CCN5CCC[C@H]5C4)c3cc21	762 nM	–
CC(=O)Nc1ccc(S(=O)(=O)N2CCN(c3nc(NC4CCCC4)c4ccccc4n3)CC2)cc1	1030 nM	–
Cc1cc(-c2cnc(N)c(-c3ccc(N4CCN(C)CC4)nc3)c2)cc(C)c1O	1400 nM	–
Cc1ccc(NC(=O)Nc2ccc(Cn3ncc(N4CCCNCC4)c(Cl)c3=O)cc2)cc1	918 nM	–
Cc1[nH]c2ccccc2c1C1=CCN(CCN2CCCc3c(Br)cccc3C2=O)CC1	659 nM	–
O=C(Nc1ccncc1)c1cn(-c2ccccc2)nc1-c1cccs1	977 nM	–
COc1cc(Cl)c(C)cc1-n1cc(C(=O)c2cc(Br)ccc2O)cc(C#N)c1=O	874 nM	–
CCOc1ccc2[nH]c(C)cc(=NN=Cc3cccnc3)c2c1	155 nM	–
CN1CCN(c2ccc(Nc3c(C(N)=O)cnc4cc(-c5ccoc5)ccc34)cc2C(F)(F)F)CC1	785 nM	–
N#Cc1ccc(Cn2ccc3c4c(N)nc(N)nc4ccc32)cc1	3.29 nM	–
CN(C(=O)/C=C/c1cc(C(F)(F)F)ccc1F)C1CCN(CCCCCNC(=O)/C=C/c2ccc(Cl)c(Cl)c2)C1 (configuration not stated)	1090 nM	–
C=CCn1c(SCC(=O)Nc2cc(Cl)ccc2Cl)nc2sc(C)cc2c1=O	71.6 nM	–
O=C(NCCCCN1CCN(c2ccc3c(c2)CCC3)CC1)c1ccc(NC(=O)c2ccc(Cl)cc2)cc1	677 nM	–
ON=C(c1nc2ccccc2[nH]1)c1nc2ccccc2[nH]1	1090 nM	–
CN(C(=O)NCCc1ccccc1)C1CCN(CCCCCNC(=O)/C=C/c2ccc(Cl)c(Cl)c2)CC1	678 nM	–
COc1ccc2ncc(F)c(CCN3CC(O)C(CNCc4ccccc4)C3)c2n1 (configuration not stated)	910 nM	–
CCC(C(C)C)n1ccc2c3c(N)nc(N)nc3ccc21 (configuration not stated)	3.2 nM	–
CC1CN(Cc2ccccc2)CCN1c1ccc(NC(=O)c2ccc(F)cc2)cc1 (configuration not stated)	1010 nM	–
COc1ccc(CNc2nccc3ccc(-c4ccc(N)nc4)cc23)cc1	979 nM	–
CN(C)C(C)(C)CN(Cc1ccc(-c2ccc(C(F)(F)F)cc2)cc1)C(=O)Cn1c(CCc2cccc(F)c2F)nc(=O)c2ccccc21	827 nM	–
COc1cc(NC(=O)c2nn(CCCN3CCC(N4CCCC4)CC3)cc2-c2ccc(Cl)c(Cl)c2)cc(OC)c1OC	555 nM	–
CC(=O)Nc1cc(C(=O)Nc2cccc(-c3csc(-c4nc5ccccc5[nH]4)c3)c2)ccc1C	465 nM	–
CC1(C)CCNc2cc(NC(=O)c3ccc(-c4ncccc4C(F)(F)F)cc3)ccc21	903 nM	–
C[C@H](Cc1ccc(Oc2ccc(C[C@@H](C)NC[C@H](O)c3cccc(Cl)c3)cc2)cc1)NC[C@H](O)c1cccc(Cl)c1	560 nM	–

Structure (SMILES)	XC50 (Plasmodium falciparum, 3D7)	XC50
Cc1cc(N(CCN2CCCCC2)CCN2CCCCC2)nc(Nc2ccc(Cl)cc2)n1	269 nM	–
Cc1ccc(Sc2ccc(NC(=O)CN3CCN(C(=O)c4ccco4)CC3)cc2)cc1C	911 nM	–
CC1Cc2ccccc2N1S(=O)(=O)c1cc(OCC(F)(F)F)ccc1OCC(F)(F)F (configuration not stated)	645 nM	–
CCCC1CCNC(C(O)c2ccnc3ccc(OC)cc23)C1 (configuration not stated)	426 nM	–
Nc1cc(C(F)(F)F)ccc1Cl	736 nM	–
N#Cc1ccc2c(c1)CN(CCC1CCC(NC(=O)c3cc4cnccc4[nH]3)CC1)CC2 (configuration not stated)	801 nM	–
Cc1ccc(NC(=O)Nc2ccccc2)cc1-c1ccc(C(=O)Nc2ccncc2)cc1	240 nM	–
O=S(=O)(NC1CCN(c2ccnc3ccccc23)C1)c1ccc(OC(F)(F)F)cc1 (configuration not stated)	1080 nM	–
Cc1cccc(C(=O)Nc2ccnc(N(C)CCCN(C)Cc3cccc(C#N)c3)c2)c1	1320 nM	–
Cn1cncc1-c1ccc2c(-c3ccsc3)cnc(N)c2c1	850 nM	–
CC(C)CNc1nc(N)nc2ccc3c(ccn3CC(C)C)c12	649 nM	–
Cc1ccc2nc(C)cc(N/N=C/c3ccc([N+](=O)[O-])o3)c2c1	751 nM	–
CCn1nc(C(=O)NC2CCOc3ccccc32)c2ccccc2c1=O (configuration not stated)	1230 nM	–
CC(=O)c1cc(N2CCOCC2)ccc1N	913 nM	–
O=C(Nc1cccc(-c2csc(-c3nc4ccccc4[nH]3)c2)c1)c1cccnc1	230 nM	–
O=C(Nc1cccc(-c2ccc(-c3nc4ccccc4[nH]3)s2)c1)c1ccncc1	778 nM	–
COc1ccc(S(=O)(=O)N2CCCc3ccc(Br)cc32)cc1N1CCN(C(=O)C(Cl)(Cl)Cl)CC1	809 nM	–
COc1cc2c(cc1C(F)(F)F)N(C(=O)Nc1cc(-c3ccncc3)cc(-c3cccnc3)c1)CC2	619 nM	–
CC(=O)Oc1ccc(C(=O)Oc2ccccc2C#CC#N)cc1OC(C)=O	320 nM	–
Cc1cccc2nc(-c3cccc(-c4cccc(CNC(C)C)c4)c3)[nH]c12	336 nM	–
CN1CC=C(c2c[nH]c3ccc(C(=O)c4nccs4)cc23)CC1	242 nM	–
O=C(N[C@@H](CC1CCCCC1)C(=O)NC1CCCCC1)c1ccc(O)c(-c2cccc(C(F)(F)F)c2)c1	747 nM	–
